Reference: patent publication US20110097274A1, “Carbon-11 and fluorine-18 labeled radioligands for positron emission tomography (PET) imaging for the brain serotonin transporters” (priority 2002, published 2011)
Several values for one entry are separate records, joined by “and”; a condition that tells them apart may be missing. Identical values can stand only once.

System: SERT
Experiment: Baboon PET imaging: brain uptake, kinetic analysis and SERT parameters
Assay type: in vivo
Description: PET imaging protocol: PET experiments (n=20) were performed at Columbia University. Two adult male baboons (baboon A and B) were studied twice with each of the 5 radioligands (4 experiments per radioligand). All experiments took place within a 9-month period. Baboons A and B were 31 kg and 21 kg in weight at the beginning of the experimental period and 28 and 22 kg at the end, respectively. Test and retest experiments with the same radioligand were obtained on different days, with an average interval of 117±53 days.
Experiments were performed according to protocols approved by the Columbia-Presbyterian Medical Center Institutional Animal Care and Use Committee. Fasted animals were immobilized with ketamine (10 mg/kg i.m.), and anesthetized with 1.8% isoflurane via an endotracheal tube. Vital signs were monitored every 10 minutes and the temperature was kept constant at 37° C. with heated water blankets. An i.v. perfusion line was used for hydration and injection of radioligands and nonradioactive drugs. A catheter was inserted in a femoral artery for arterial blood sampling. Head was positioned at the center of the field of view as defined by imbedded laser lines. PET imaging was performed with the ECAT EXACT HR+PET scanner (Siemens/CTI, Knoxville, Tenn.). In 3D mode, this camera provides an in-plane resolution of 4.3 mm, 4.5 mm, 5.4 mm and 8.0 mm full width at half maximum (FWHM) at a distance of 0, 1, 10 and 20 cm from the center of the field of view, respectively (Brix et al., 1997). A 15 minute transmission scan was obtained prior to radioligand injection for attenuation correction. Activity was injected i.v. over 30 seconds. […] Emission data was collected in the 3D mode for 91 minutes as 21 successive frames of increasing duration (6*10 seconds, 2*1 minutes, 4*2 minutes, 2*5 minutes, and 7*10 minutes).
Image analysis: A Magnetic Resonance Image (MRI) of each baboon's brain was obtained for the purpose of identifying the regions of interest (ROI) (T1-weighted axial MRI sequence, acquired parallel to the anterior-posterior commissure, TR 34 msec, TE 5 msec, flip angle of 45 degrees, slice thickness is 1.5 mm, zero gap, matrix 1.5 mm×1 mm×1 mm voxels). The following regions were drawn on the MR images: cerebellum, midbrain, thalamus, striatum, hippocampus, temporal cortex, cingulate cortex and occipital cortex.
PET emission data were attenuation-corrected using the transmission scan, and frames were reconstructed using a Shepp filter (cutoff 0.5 cycles/projection rays). Reconstructed image files were then processed using the image analysis software MEDx (Sensor Systems, Inc., Sterling, Va.). An image was created by summing all the frames, and this summed image was used to define the registration parameters with the MR image, using between-modality automated image registration (AIR) algorithm (Woods et al., 1993). Registration parameters were then applied to the individual frames for registration to the MR data set. Regional boundaries were transferred to the individual registered PET frames, and time-activity curves were measured and decay-corrected. Right and left regions were averaged. For a given animal, the same regions were used for all radioligands.
Brain uptake: Total brain uptake was expressed as percentage of the injected dose per gram of tissue (% ID g^−1) in a region encompassing the entire brain. Regional peak time was defined as the mid-time of the frame associated with the highest activity value. To estimate the degree of wash-out from the brain captured during the scan interval (91 minutes), the decrease in activity from the peak frame to the last frame was calculated and expressed in percentage of the peak activity.
Kinetic analysis: Regional total distribution volumes (VT, mL g^−1) were derived with kinetic analysis of the regional time-activity curves, using the arterial plasma concentrations as input function. […]

[1] = BP = VT ROI − VT CER, baboons, mean ± SD of four experiments
[2] = Mean ± SD of four experiments in two baboons
[3] = baboons, mean ± SD of four experiments
[4] = last scan 90 minutes, baboons, mean ± SD of four experiments
[5] = one-tissue compartment model, baboons, mean ± SD of four experiments

## [11CH3]Sc1ccc([C@H]2CN3CCC[C@H]3c3ccccc32)cc1 [[^11C]McN 5652]
[1]
  Binding potential Cingulate Cortex: 5.4 ± 0.8 mL/g
  Binding potential Hippocampus: 9.5 ± 2.3 mL/g
  Binding potential Midbrain: 25.9 ± 6.1 mL/g
  Binding potential Occipital Cortex: 2.9 ± 1.6 mL/g
  Binding potential Striatum: 17.6 ± 4.0 mL/g
  Binding potential Temporal Cortex: 6.2 ± 1.8 mL/g
  Binding potential Thalamus: 28.8 ± 6.9 mL/g
Baboon A, single experiment
  Equilibrium specific to non-specific partition coefficient (V3″) Cingulate Cortex: 0.21 and 0.17
  Equilibrium specific to non-specific partition coefficient (V3″) Hippocampus: 0.41 and 0.29
  Equilibrium specific to non-specific partition coefficient (V3″) Midbrain: 1.16 and 0.78
  Equilibrium specific to non-specific partition coefficient (V3″) Occipital Cortex: 0.13 and 0.18
  Equilibrium specific to non-specific partition coefficient (V3″) Striatum: 0.81 and 0.49
  Equilibrium specific to non-specific partition coefficient (V3″) Temporal Cortex: 0.34 and 0.23
  Equilibrium specific to non-specific partition coefficient (V3″) Thalamus: 1.17 and 0.82
Baboon B, single experiment
  Equilibrium specific to non-specific partition coefficient (V3″) Cingulate Cortex: 0.20
  Equilibrium specific to non-specific partition coefficient (V3″) Hippocampus: 0.38 and 0.30
  Equilibrium specific to non-specific partition coefficient (V3″) Midbrain: 1.00 and 0.80
  Equilibrium specific to non-specific partition coefficient (V3″) Occipital Cortex: 0.05 and 0.07
  Equilibrium specific to non-specific partition coefficient (V3″) Striatum: 0.66 and 0.60
  Equilibrium specific to non-specific partition coefficient (V3″) Temporal Cortex: 0.18 and 0.16
  Equilibrium specific to non-specific partition coefficient (V3″) Thalamus: 1.15 and 1.00
[2]
  Equilibrium specific to non-specific partition coefficient (V3″) Cingulate Cortex: 0.19 and 0.19 ± 0.02
  Equilibrium specific to non-specific partition coefficient (V3″) Hippocampus: 0.34 and 0.34 ± 0.06
  Equilibrium specific to non-specific partition coefficient (V3″) Midbrain: 0.94 and 0.94 ± 0.18
  Equilibrium specific to non-specific partition coefficient (V3″) Occipital Cortex: 0.11 and 0.11 ± 0.06
  Equilibrium specific to non-specific partition coefficient (V3″) Striatum: 0.64 and 0.64 ± 0.13
  Equilibrium specific to non-specific partition coefficient (V3″) Temporal Cortex: 0.23 and 0.23 ± 0.08
  Equilibrium specific to non-specific partition coefficient (V3″) Thalamus: 1.04 and 1.04 ± 0.16
baboons
  K1, average of all regions and all animals: 0.93 ± 0.18 mL/g/min
  VT, average of all regions and all animals: 39.7 ± 11.8 mL/g
  k2, average of all regions and all animals: 0.025 ± 0.008 min⁻¹
baboons, mean of all regions
  Mean regional peak uptake time: 28 ± 12 min
  Mean regional wash-out (% decrease between peak time and last scan): 24±13%
[3]
  Regional uptake peak time Cerebellum: 15 ± 3 min
  Regional uptake peak time Cingulate Cortex: 17 ± 3 min
  Regional uptake peak time Hippocampus: 36 ± 8 min
  Regional uptake peak time Midbrain: 39 ± 13 min
  Regional uptake peak time Occipital Cortex: 17 ± 3 min
  Regional uptake peak time Striatum: 34 ± 10 min
  Regional uptake peak time Temporal Cortex: 27 ± 7 min
  Regional uptake peak time Thalamus: 41 ± 6 min
baboons, region encompassing the entire brain
  Total brain uptake at 45 min: 0.016±0.002 % ID g^−1
[4]
  Regional activity wash-out: % decrease from peak to last scan, Cerebellum: 44 ± 6%
  Regional activity wash-out: % decrease from peak to last scan, Cingulate Cortex: 34 ± 3%
  Regional activity wash-out: % decrease from peak to last scan, Hippocampus: 16 ± 3%
  Regional activity wash-out: % decrease from peak to last scan, Midbrain: 8 ± 5%
  Regional activity wash-out: % decrease from peak to last scan, Occipital Cortex: 34 ± 3%
  Regional activity wash-out: % decrease from peak to last scan, Striatum: 18 ± 7%
  Regional activity wash-out: % decrease from peak to last scan, Temporal Cortex: 24 ± 6%
  Regional activity wash-out: % decrease from peak to last scan, Thalamus: 12 ± 4%
[5]
  K1 Cerebellum: 1.05 ± 0.20 mL/g/min
  K1 Cingulate Cortex: 1.01 ± 0.24 mL/g/min
  K1 Hippocampus: 0.74 ± 0.12 mL/g/min
  K1 Midbrain: 0.92 ± 0.12 mL/g/min
  K1 Occipital Cortex: 0.95 ± 0.18 mL/g/min
  K1 Striatum: 0.95 ± 0.12 mL/g/min
  K1 Temporal Cortex: 0.83 ± 0.19 mL/g/min
  K1 Thalamus: 1.03 ± 0.15 mL/g/min
  K2 Cerebellum: 0.038 ± 0.007 min⁻¹
  K2 Cingulate Cortex: 0.031 ± 0.007 min⁻¹
  K2 Hippocampus: 0.020 ± 0.003 min⁻¹
  K2 Midbrain: 0.017 ± 0.003 min⁻¹
  K2 Occipital Cortex: 0.031 ± 0.006 min⁻¹
  K2 Striatum: 0.021 ± 0.003 min⁻¹
  K2 Temporal Cortex: 0.025 ± 0.006 min⁻¹
  K2 Thalamus: 0.019 ± 0.003 min⁻¹
  VT Cerebellum (VT CER, nonspecific distribution volume): 27.7 ± 4.0 mL/g
  VT Cingulate Cortex: 33.1 ± 4.7 mL/g
  VT Hippocampus: 37.2 ± 5.9 mL/g
  VT Midbrain: 53.6 ± 9.3 mL/g
  VT Occipital Cortex: 30.6 ± 3.9 mL/g
  VT Striatum: 45.3 ± 7.0 mL/g
  VT Temporal Cortex: 33.9 ± 4.2 mL/g
  VT Thalamus: 56.5 ± 10.3 mL/g
